Among the data in article doi:10.1101/423061v1, “Comparative analysis of PknB inhibitors for reactivity and toxicity” (biorxiv, 2018) are IC50 values, retold here.

This experiment concerns the target PknB (Mycobacterium tuberculosis, UniProt P9WI81). Description: ATP Glo kinase assay, GarA as protein substrate. It counts as biochemical.

Sequence of PknB (P9WI81 1-331 limits assumed): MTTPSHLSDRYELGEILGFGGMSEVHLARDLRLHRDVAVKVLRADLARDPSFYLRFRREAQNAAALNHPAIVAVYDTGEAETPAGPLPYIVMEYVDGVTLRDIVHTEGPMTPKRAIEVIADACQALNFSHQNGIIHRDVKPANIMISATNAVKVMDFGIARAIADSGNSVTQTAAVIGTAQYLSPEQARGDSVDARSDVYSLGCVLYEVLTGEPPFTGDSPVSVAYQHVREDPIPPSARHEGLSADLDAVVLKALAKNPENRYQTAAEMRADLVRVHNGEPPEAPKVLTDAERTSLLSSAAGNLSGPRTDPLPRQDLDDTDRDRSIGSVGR

In the case of `COC(=O)/C=C/C(=O)c1ccc(OC)cc1` [YH-8, trans-Methyl-4-(4-methoxyphneyl)-4-oxobut-2-enoate], the IC50 (commonly the concentration needed to halve the response being measured) turned out to be 6.6 µM.
